Results: patent publication US6414138B1, “Process for producing mixtures rich in 1,6-GPS or 1,1-GPM” (Sudzucker Aktiengesellschaft, priority 1997, dated 2002)

Assay: Solubility of 1,1-GPM and 1,6-GPS in water / aqueous suspension
Type: physicochemical
Conditions: seed crystals mixed into concentrated aqueous solution of hydrogenated isomaltulose, about 50-65° C.
Description: Since the solubility equilibrium is temperature-dependent, the concentration ratio of the two components can advantageously be preset. After the solubility equilibrium is adjusted, the 1,1-GPM and 1,6-GPS concentration in the products can be controlled by setting the rate for the temperature change.
In another preferred embodiment of the invention, a suspension which is formed by the addition of, for example, crystalline hydrogenated isomaltulose in water, is heated to, for example, 85° C. to completely dissolve the solute, whereafter the cooling step to crystallize the solution is combined with a seeding step. The seeding step, however, is not essential. Advantageously, powdered hydrogenated isomaltulose in crystalline form or in the form of a suspension can be used. Most advantageously, the suspension is formed in water or in an organic solvent, such as isopropanol, and a food-compatible dispersing agent acting as a solvent can be added, if necessary. […]
The two constituents of hydrogenated isomaltulose, i.e. 1,1-GPM and 1,6-GPS, have a different solubility in aqueous solutions (FIG. 4). […] The 1,1-GPM component, which crystallizes more readily, is concentrated in the solid fraction of the suspension, whereas the 1,6-GPS component, which crystallizes less readily, goes preferentially into solution. […]

Row | Compound | solubility (in words)
1 | OC[C@H](O)[C@@H](O)[C@H](O)[C@H](O)CO[C@H]1O[C@H](CO)[C@@H](O)[C@H](O)[C@H]1O [1,6-GPS, 6-0-α-D-Glucopyranosyl-D-sorbite] | readily soluble
2 | OC[C@@H](O)[C@@H](O)[C@H](O)[C@H](O)CO[C@H]1O[C@H](CO)[C@@H](O)[C@H](O)[C@H]1O [1,1-GPM, 1-0-α-D-Glucopyranosyl-D-mannite] | only slightly soluble
